Laboratory results reported in US20110319392A1, “Thiazole Sulfonamide And Oxazole Sulfonamide Kinase Inhibitors” (priority 2009, published 2011).
Where a name gives a salt, the structure may show the parent alone.

How the values were obtained:
B-Raf = B-Raf (Homo sapiens, UniProt P15056); assay: B-Raf Accelerated MEK ATPase assay (BRAMA), Method A or B; type: biochemical
Procedure, shortened: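 ADP production, initiated by catalytic activated Raf with unphosphorylated MEK, is followed by NADH oxidation through a PK/LDH coupled system. Method B differs from the kinetic Method A by a single end-point read and 150 nM final MEK.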

A375P F11s tumor cells = assay: Cell growth inhibition assay (CellTiter-Glo), A375P F11s; type: cell-based, Human; details: for IC50: Homo sapiens
Procedure, shortened: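 Cells plated at 500 cells/well in their growth media, dosed next day with nine-step 1:3 compound dilutions (final DMSO 0.2%), then incubated 3 days at 37° C, 5% CO2. Total ATP read by CellTiter-Glo luminescence as a surrogate for cell number; IC50 interpolated from 4-parameter fit versus DMSO controls.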

[1] = Method B: final MEK 150 nM, single end point read

Sequence of B-Raf (P15056 whole entry): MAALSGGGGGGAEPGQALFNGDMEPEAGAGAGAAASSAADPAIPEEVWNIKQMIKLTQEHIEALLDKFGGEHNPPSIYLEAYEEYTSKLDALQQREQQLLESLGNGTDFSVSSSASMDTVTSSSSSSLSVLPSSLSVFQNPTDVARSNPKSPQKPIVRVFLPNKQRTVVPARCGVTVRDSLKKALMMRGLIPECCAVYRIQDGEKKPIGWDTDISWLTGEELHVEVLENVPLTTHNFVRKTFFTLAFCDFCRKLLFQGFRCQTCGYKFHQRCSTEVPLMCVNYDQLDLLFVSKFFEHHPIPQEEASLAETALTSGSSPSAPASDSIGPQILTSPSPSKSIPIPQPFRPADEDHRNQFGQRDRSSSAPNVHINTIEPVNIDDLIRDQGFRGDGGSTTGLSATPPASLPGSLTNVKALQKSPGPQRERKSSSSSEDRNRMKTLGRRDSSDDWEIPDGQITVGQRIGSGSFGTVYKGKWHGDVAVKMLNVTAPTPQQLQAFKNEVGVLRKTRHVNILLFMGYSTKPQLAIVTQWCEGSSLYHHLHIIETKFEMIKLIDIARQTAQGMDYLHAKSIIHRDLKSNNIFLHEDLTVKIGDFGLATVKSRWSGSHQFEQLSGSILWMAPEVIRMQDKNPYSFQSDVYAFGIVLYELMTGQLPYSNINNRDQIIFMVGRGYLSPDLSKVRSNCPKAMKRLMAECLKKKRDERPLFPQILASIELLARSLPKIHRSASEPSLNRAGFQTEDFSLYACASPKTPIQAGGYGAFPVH

IC50 (B-Raf; [1])	IC50 (A375P F11s tumor cells)	IC50 (B-Raf; Method A)	Structure (SMILES)	Activity in A375P F11s Tumor Cells (A375P F11s tumor cells)
< 100 nM	< 100 nM	–	CC(C)c1nc(-c2cccc(NS(=O)(=O)c3c(F)cccc3F)c2)c(-c2ccnc(Nc3ccc(N4CCN(CCS(C)(=O)=O)CC4)c(F)c3)n2)s1 [Example 16, 2,6-Difluoro-N-{3-[5-{2-[(3-fluoro-4-{4-[2-(methylsulfonyl)ethyl]-1-piperazinyl}phenyl)amino]-4-pyrimidinyl}-2-(1-methylethyl)-1,3-thiazol-4-yl]ohenyl}benzenesulfonamide hydrochloride]	–
< 100 nM	< 100 nM	–	Cc1nc(-c2cccc(NS(=O)(=O)c3c(F)cccc3F)c2)c(-c2ccnc(Nc3ccc(N4CCOCC4)nc3)n2)s1 [Example 133]	–
< 100 nM	< 100 nM	–	O=S(=O)(Nc1cccc(-c2ncsc2-c2ccnc(Nc3ccc(N4CCOCC4)nc3)n2)c1)c1c(F)cccc1F [Example 162]	–
< 100 nM	100 to 1000 nM	–	CS(=O)(=O)CCN1CCN(c2ccc(Nc3nccc(-c4oc(N5CCCC5)nc4-c4ccc(F)c(NS(=O)(=O)c5c(F)cccc5F)c4)n3)cc2F)CC1 [Example 119]	–
< 100 nM	100 to 1000 nM	–	CC(=O)N1CCN(c2ccc(Nc3nccc(-c4oc(C(C)C)nc4-c4cccc(NS(=O)(=O)c5c(F)cccc5F)c4)n3)cn2)CC1 [Example 56]	–
< 100 nM	–	–	Cc1cc(N2CCOCC2)ncc1Nc1nccc(-c2sc(N3CCCC3)nc2-c2cccc(NS(=O)(=O)c3c(F)cccc3F)c2)n1 [Example 124]	+ (activity of >1 μM in A375P F11s tumor cells)
< 100 nM	< 100 nM	–	Cc1cc(Nc2nccc(-c3sc(C(C)(C)C)nc3-c3cccc(NS(=O)(=O)c4c(F)cccc4F)c3F)n2)ccn1 [Example 159]	–
< 100 nM	< 100 nM	–	CC(=O)N1CCN(c2ccc(Nc3nccc(-c4sc(C(C)C)nc4-c4cccc(NS(=O)(=O)c5cccc(F)c5)c4)n3)cn2)CC1 [Example 11, N-{3-[5-(2-{[6-(4-Acetyl-1-piperazinyl)-3-pyridinyl]amino}-4-pyrimidinyl)-2-(1-methylethyl)-1,3-thiazol-4-yl]phenyl}-3-fluorobenzenesulfonamide]	–
< 100 nM	100 to 1000 nM	–	CC(C)c1nc(-c2ccc(F)c(NS(=O)(=O)c3c(F)cccc3F)c2)c(-c2ccnc(Nc3ccnc(N4CCOCC4)c3)n2)s1 [Example 117]	–
< 100 nM	100 to 1000 nM	–	CC(C)c1nc(-c2cc(F)c(F)c(NS(=O)(=O)c3cccc(F)c3)c2)c(-c2ccnc(Nc3cnc(N4CCOCC4)c(F)c3)n2)s1 [Example 31, N-{2,3-Difluoro-5-[5-(2-{[5-fluoro-6-(4-morpholinyl)-3-pyridinyl]amino}-4-pyrimidinyl)-2-(1-methylethyl)-1,3-thiazol-4-yl]phenyl}-3-fluorobenzenesulfonamide]	–
< 100 nM	< 100 nM	–	CC(C)c1nc(-c2ccnc(NS(=O)(=O)c3c(F)cccc3F)c2)c(-c2ccnc(Nc3cnc(N4CCOCC4)c(F)c3)n2)s1 [Example 33]	–
< 100 nM	100 to 1000 nM	–	COc1cc(N2CCN(CCS(C)(=O)=O)CC2)c(C)cc1Nc1nccc(-c2sc(C(C)(C)C)nc2-c2cccc(NS(=O)(=O)c3c(F)cccc3F)c2)n1 [Example 120]	–
< 100 nM	< 100 nM	–	Cc1cc(N2CCN(CCS(C)(=O)=O)CC2)ncc1Nc1nccc(-c2sc(C(C)C)nc2-c2cccc(NS(=O)(=O)c3c(F)cccc3F)c2)n1 [Example 131]	–
< 100 nM	< 100 nM	–	CC(C)c1nc(-c2ccc(F)c(NS(=O)(=O)c3c(F)cccc3F)c2)c(-c2ccnc(Nc3ccc(N4CCOCC4)nc3)n2)s1 [Example 23, 2,6-Difluoro-N-{2-fluoro-5-[2-(1-methylethyl)-5-(2-{[6-(4-morpholinyl)-3-pyridinyl]amino}-4-pyrimidinyl)-1,3-thiazol-4-yl]phenyl}benzenesulfonamide]	–
< 100 nM	< 100 nM	–	CC(C)c1nc(-c2cccc(NS(=O)(=O)c3c(F)cccc3F)c2)c(-c2ccnc(Nc3ccc(N4CCN5CCOC[C@H]5C4)nc3)n2)s1 [Example 15]	–
–	< 100 nM	< 100 nM	COCCN1CCN(c2ccc(Nc3nccc(-c4sc(C(C)C)nc4-c4cccc(NS(=O)(=O)c5ccccc5)c4)n3)cn2)CC1 [Example 6, N-[3-(2-(1-Methylethyl)-5-{2-[(6-{4-[2-(methyloxy)ethyl]-1-piperazinyl}-3-pyridinyl)amino]-4-pyrimidinyl}-1,3-thiazol-4-yl)phenyl]benzenesulfonamide]	–
< 100 nM	100 to 1000 nM	–	CC(C)c1nc(-c2cc(F)c(F)c(NS(=O)(=O)c3cccc(F)c3)c2)c(-c2ccnc(Nc3ccc(N4CCN(CCF)CC4)c(F)c3)n2)s1 [Example 101]	–
< 100 nM	< 100 nM	–	Nc1nc(-c2cccc(NS(=O)(=O)c3c(F)cccc3F)c2)c(-c2ccnc(Nc3ccc(N4CCOCC4)nc3)n2)s1 [Example 62]	–
< 100 nM	< 100 nM	–	CC(C)c1nc(-c2cccc(NS(=O)(=O)c3c(F)cccc3F)c2F)c(-c2ccnc(Nc3ccc(N4CCOCC4)nc3)n2)s1 [Example 123]	–
< 100 nM	< 100 nM	–	O=S(=O)(Nc1cc(-c2nc(N3CCCC3)sc2-c2ccnc(Nc3ccc(N4CCOCC4)nc3)n2)ccc1F)c1c(F)cccc1F [Example 26, 2,6-Difluoro-N-{2-fluoro-5-[5-(2-{(6-(4-morpholinyl)-3-pyridinyl]amino}-4-pyrimidinyl)-2-(1-pyrrolidinyl)-1,3-thiazol-4-yl]phenyl}benzenesulfonamide]	–
< 100 nM	< 100 nM	–	COc1ccc(S(C)(=O)=O)cc1Nc1nccc(-c2sc(N3CCOCC3)nc2-c2cccc(NS(=O)(=O)c3c(F)cccc3F)c2F)n1 [Example 157]	–
< 100 nM	< 100 nM	–	CC(C)c1nc(-c2ccnc(NS(=O)(=O)c3c(F)cccc3F)c2)c(-c2ccnc(Nc3ccc(N4CCN(CCF)CC4)c(F)c3)n2)s1 [Example 100]	–
< 100 nM	100 to 1000 nM	–	CC(C)c1nc(-c2cccc(NS(=O)(=O)c3c(F)cccc3F)n2)c(-c2ccnc(Nc3ccc(N4CCOCC4)nc3)n2)s1 [Example 44]	–
< 100 nM	100 to 1000 nM	–	COc1cc(N2CCC(N3CCN(CCS(C)(=O)=O)CC3)CC2)ccc1Nc1nccc(-c2sc(C(C)C)nc2-c2cccc(NS(=O)(=O)c3c(F)cccc3F)c2)n1 [Example 20, 2,6-Difluoro-N-{3-[2-(1-methylethyl)-5-(2-{[2-(methyloxy)-4-(4-{4-[2-(methylsulfonyl)ethyl]-1-piperazinyl}-1-piperidinyl)phenyl]amino}-4-pyrimidinyl)-1,3-thiazol-4-yl]phenyl}benzenesulfonamide]	–
< 100 nM	< 100 nM	–	CCOc1ccc(Nc2nccc(-c3sc(N4CCCC4)nc3-c3cccc(NS(=O)(=O)c4c(F)cccc4F)c3)n2)cc1N1CCN(CCS(C)(=O)=O)CC1 [Example 109]	–
< 100 nM	< 100 nM	–	O=S(=O)(Nc1cccc(-c2nc(N3CCOCC3)sc2-c2ccnc(Nc3ccc(N4CCOCC4)nc3)n2)c1F)c1c(F)cccc1F [Example 122]	–

Structure (SMILES)	IC50 (B-Raf; [1])	IC50 (A375P F11s tumor cells)	IC50 (B-Raf; Method A)	Activity in A375P F11s Tumor Cells (A375P F11s tumor cells)
O=S(=O)(Nc1cccc(-c2nc(N3CCCCC3)sc2-c2ccnc(Nc3ccc(N4CCOCC4)nc3)n2)c1)c1c(F)cccc1F [Example 151]	< 100 nM	< 100 nM	–	–
